Like-named read-outs stand apart in the source and are kept apart here.
Key:
glucagon receptor (GCGR) = biological target: T1, glucagon receptor (GCGR) (Homo sapiens, UniProt P47871); test: I125-glucagon binding assay (competition, GCGR membrane fractions)
T1 construct: expressed in transfected cells; host or cells: CHO-K1 cells overexpressing GCGR (membrane fractions)
Summary of the method: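 Competition of 0.0625 nM (final) I^125-glucagon for 30 min at 25° C, after 5 min compound preincubation, using 7.5 μg/well GCGR-overexpressing CHO-K1 membranes in 50 mM Tris pH 7.4, 0.5% BSA. Filtration onto PEI-coated GF/B, micro-beta counting, and non-linear regression gave IC50.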

[1] = biological target: T2, glucagon receptor (GCGR) overexpressed CHO-K1 cells or human primary hepatocytes (Homo sapiens, UniProt P47871); test: Glucagon cAMP inhibition assay (Cisbio cAMP Dynamic 2 HTRF); format: cell-based
T2 construct: expressed in transfected cells; host or cells: GCGR overexpressed CHO-K1 cells or human primary hepatocytes (endogenous receptor)
T2 sequence (P47871 26-477): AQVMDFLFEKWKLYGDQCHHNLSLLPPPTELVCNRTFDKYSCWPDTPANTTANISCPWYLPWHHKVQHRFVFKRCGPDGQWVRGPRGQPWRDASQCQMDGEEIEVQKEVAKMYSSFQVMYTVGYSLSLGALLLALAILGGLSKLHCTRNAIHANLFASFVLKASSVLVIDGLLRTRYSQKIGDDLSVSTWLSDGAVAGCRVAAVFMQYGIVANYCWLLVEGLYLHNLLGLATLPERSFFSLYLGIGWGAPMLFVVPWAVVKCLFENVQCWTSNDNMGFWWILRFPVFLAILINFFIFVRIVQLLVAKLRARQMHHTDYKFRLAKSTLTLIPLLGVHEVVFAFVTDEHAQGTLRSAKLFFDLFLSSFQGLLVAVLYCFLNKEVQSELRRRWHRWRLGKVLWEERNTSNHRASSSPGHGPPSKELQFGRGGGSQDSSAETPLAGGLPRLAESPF
Summary of the method: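 HTRF read-out of glucagon-induced cAMP, with IC50 from non-linear regression. Cells (GCGR CHO-K1 or human primary hepatocytes) in HBSS/0.1% BSA/800 nM IBMX took compound dilutions for 30 min (final DMSO 1%), then EC50-level glucagon for 30 min at room temperature, then a 60 min lysis/detection step.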

[2] = competition with I125-glucagon 0.0625 nM, membrane fractions of GCGR overexpressed CHO-K1 cells
[3] = inhibition of glucagon (EC50 concentration) induced cAMP production

T1 sequence (P47871 26-477): as above

Row | SMILES | IC50 (glucagon receptor (GCGR)) | IC50 cAMP [1] | IC50 (glucagon receptor (GCGR); [2]) | IC50 cAMP [1, 3] | IC50 cAMP ([1]; uM)
1 | CCCC[C@@H](COc1ccc(-c2ccc(C(F)(F)F)cc2Cl)c(F)c1)Nc1ccc(C(=O)NCCC(=O)O)cc1 [Compound 8-15, (S)-3-(4-((1-((2′-chloro-2-fluor-4′-(trifluromethyl)-[1,1′-biphenyl]-4-yl)oxy)hexan-2-yl)amino)benzamido)propanoic Acid] | – | – | 0.059 µM | 0.129 µM | –
2 | CC(C)[C@@H](COc1ccc(-c2cc3ccccc3o2)c(F)c1)Nc1ccc(C(=O)NCCS(=O)(=O)O)cc1 [Compound 8-4, (S)-2-(4-((1-(4-(benzofuran-2-yl)-3-fluorophenoxy)-3-methylbutan-2-yl)amino)benzamido)ethane-1-sulfonic Acid] | – | – | 1.72 µM | 10.292 µM | –
3 | CC(C)COC[C@@H](Cc1ccc(-c2ccc(Cl)cc2Cl)cc1)Nc1ccc(C(=O)NCCC(=O)O)cc1 [Compound 19-20, (R)-3-(4-((1-(2′,4′-dichloro-[1,1′-biphenyl]-4-yl)-3-isobutoxypropan-2-yl)amino)benzamido)propanoic Acid] | 1.15 µM | 0.8224 µM | – | – | –
4 | CC[C@H](C)[C@@H](COc1ccc(-c2ccc(C(C)(C)C)cc2)cc1)Nc1ccc(C(=O)NCCC(=O)O)cc1 [Compound 1-3, 3-(4-(((2S,3S)-1-((4′-(tert-butyl)-[1,1′-biphenyl]-4-yl)oxy)-3-methylpentan-2-yl)amino)benzamido)propanoic Acid] | – | – | 0.319 µM | 0.8844 µM | –
5 | CC(C)[C@@H](COc1ccc(-c2cc(Cl)cc(Cl)c2)nc1)Nc1ccc(C(=O)NCCC(=O)O)cc1 [Compound 10-5, (S)-3-(4-((1-((6-(3,5-dichlorophenyl)pyridin-3-yl)oxy)-3-methylbutan-2-yl)amino)benzamido)propenoic Acid] | – | – | 0.441 µM | 3.69 µM | –
6 | CC[C@H](C)[C@@H](COc1ccc(-c2cc3ccccc3o2)c(Cl)c1)Nc1ccc(C(=O)NCc2nnn[nH]2)cc1 [Compound 3-1, N-((1H-tetrazol-5-yl)methyl)-4-(((2S,3S)-1-(4-(benzofuran-2-yl)-3-chlorophenoxy)-3-methylpentan-2-yl)amino)benzamide] | – | – | 0.217 µM | 1.822 µM | –
7 | CC[C@H](C)[C@@H](COc1cc(C)c(-c2ccc(C(F)(F)F)cc2)c(C)c1)Nc1ccc(C(=O)NCCC(=O)O)cc1 [Compound 2-10, 3-(4-(((2S,3S)-1-((2,6-dimethyl-4′-(trifluoromethyl)-[1,1′-biphenyl]-4-yl)oxy)-3-methylpentan-2-yl)amino)benzamido)propanoic Acid] | – | – | 0.09 µM | 0.2414 µM | –
8 | CC(C)C[C@@H](COc1cc(F)c(-c2cc(Cl)cc(Cl)c2)c(F)c1)Nc1ccc(C(=O)NCCC(=O)O)cc1 [Compound 7-9, (S)-3-(4-((1-((3′,5′-dichloro-2,6-difluoro-[1,1′-biphenyl]-4-yl)oxy)-4-methylpentan-2-yl)amino)benzamido)propanoic Acid] | – | – | 0.262 µM | 0.816 µM | –
9 | CCCC[C@@H](COc1ccc(-c2ccc(C(F)(F)F)cc2F)nc1)Nc1ccc(C(=O)NCCC(=O)O)cc1 [Compound 10-8, (S)-3-(4-((1-((6-(2-fluoro-4-(trifluoromethyl)phenyl)pyridin-3-yl)oxy)hexan-2-yl)amino)benzamido)propanoic Acid] | – | – | 0.18 µM | 0.344 µM | –
10 | CC[C@H](C)[C@@H](COc1ccc(-c2ccc(C(F)(F)F)cc2F)nc1)Nc1ccc(C(=O)NCCC(=O)O)cc1 [Compound 10-14, 3-(4-(((2S,3S)-1-((6-(2-fluoro-4-(trifluoromethyl)phenyl)pyridin-3-yl)oxy)-3-methylpentan-2-yl)amino)benzamido)propanoic Acid] | – | – | 0.306 µM | 0.4971 µM | –
11 | CCCC[C@@H](COc1cnc(-c2ccc(Cl)cc2Cl)nc1)Nc1ccc(C(=O)NCCC(=O)O)cc1 [Compound 12-7, (S)-3-(4-((1-((2-(2,4-dichlorophenyl)pyrimidin-5-yl)oxy)hexan-2-yl)amino)benzamido)propanoic Acid] | – | – | 0.888 µM | 3.868 µM | –
12 | CC[C@H](C)[C@@H](COc1ccc(-c2ccc(C(F)(F)F)cc2F)c(F)c1)Nc1ccc(C(=O)NCCC(=O)O)cc1 [Compound 8-10, 3-(4-(((2S,3S)-1-((2,2′-difluoro-4′-(trifluoromethyl)-[1,1′-biphenyl]-4-yl)oxy)-3-methylpentan-2-yl)amino)benzamido)propanoic Acid] | – | – | 0.186 µM | 0.3532 µM | –
13 | CCOC(=O)CCNC(=O)c1ccc(N[C@H](COc2ccc(-c3cc4ccccc4o3)cc2)C(C)C)cc1 [Compound 1-1, Ethyl(S)-3-(4-((1-(4-(benzofuran-2-yl)phenoxy)-3-methylbutan-2-yl)amino)benzamido) propanoate] | – | – | 0.803 µM | 1.177 µM | –
14 | CCCC[C@@H](COc1ccc(-c2ccc(C(F)(F)F)cc2Cl)c(Cl)c1)Nc1ccc(C(=O)NCc2nnn[nH]2)cc1 [Compound 3-9, (S)—N-((1H-tetrazol-5-yl)methyl)-4-((1-((2,2′-dichloro-4′-(trifluoromethyl)-[1,1′-biphenyl]-4-yl)oxy)hexan-2-yl)amino)benzamide] | – | – | 0.037 µM | 0.5281 µM | –
15 | CC[C@H](C)[C@@H](COc1ccc(-c2ccc(C(F)(F)F)cc2F)cn1)Nc1ccc(C(=O)NCCC(=O)O)cc1 [Compound 15-14, 3-(4-(((2S,3S)-1-((5-(2-fluoro-4-(trifluoromethyl)phenyl)pyridin-2-yl)oxy)-3-methylpentan-2-yl)amino)benzamido)propanoic Acid] | 0.379 µM | 0.2806 µM | – | – | –
16 | CCCC[C@@H](COc1ccc(-c2cc3ccccc3o2)c(Cl)c1)Nc1ccc(C(=O)NCCC(=O)O)cc1 [Compound 3-10, (S)-3-(4-((1-(4-(benzofuran-2-yl)-3-chlorophenoxy)hexan-2-yl)amino)benzamido)propanoic Acid] | – | – | 0.02 µM | 0.0887 µM | –
17 | CCCC[C@@H](COc1ccc(-c2ccc(C(F)(F)F)cc2)cc1)Nc1ccc(C(=O)NCc2nnn[nH]2)cc1 [Compound 1-16, (S)—N-((1H-tetrazol-5-yl)methyl)-4-((1-((4′-(trifluoromethyl)-[1,1′-biphenyl]-4-yl)oxy)hexan-2-yl)amino)benzamide] | – | – | 0.052 µM | 0.9488 µM | –

Second part, the molecule after the results:

Row | IC50 (glucagon receptor (GCGR)) | IC50 cAMP [1] | IC50 (glucagon receptor (GCGR); [2]) | IC50 cAMP [1, 3] | IC50 cAMP ([1]; uM) | SMILES
18 | 0.152 µM | 0.877 µM | – | – | – | CC(C)C[C@H](Cc1ccc(-c2ccc(C(C)(C)C)cc2)cc1)Nc1ccc(C(=O)NCCC(=O)O)cc1 [Compound 19-8, (R)-3-(4-((1-(4′-(tert-butyl)-[1,1′-biphenyl]-4-yl)-4-methylpentan-2-yl)amino)benzamido)propanoic Acid]
19 | 7.4 µM | – | – | – | >10 µM | O=C(O)CCNC(=O)c1ccc(N[C@@H](Cc2ccccc2)C(=O)Nc2ccc(C(F)(F)F)cc2)cc1 [Compound 24-6, (S)-3-(4-((1-oxo-3-phenyl-1-((4-(trifluoromethyl)phenyl)amino)propan-2-yl)amino)benzamido)propanoic Acid]
20 | > 30 µM | >30 µM | – | – | – | CCCC[C@@H](COc1nnc(-c2ccc(C(C)(C)C)cc2)o1)Nc1ccc(C(=O)NCCC(=O)O)cc1 [Compound 22-18, (S)-3-(4-((1-((5-(4-(tert-butyl)phenyl)-1,3,4-oxadiazol-2-yl)oxy)hexan-2-yl)amino)benzamido)propanoic Acid]
21 | > 30 µM | >30 µM | – | – | – | CC[C@H](C)[C@@H](COc1nnc(-c2ccc(Cl)cc2Cl)o1)Nc1ccc(C(=O)NCCC(=O)O)cc1 [Compound 22-11, 3-(4-(((2S,3S)-1-((5-(2,4-dichlorophenyl)-1,3,4-oxadiazol-2-yl)oxy)-3-methylpentan-2-yl)amino)benzamido)propanoic Acid]
22 | 0.621 µM | 0.74 µM | – | – | – | CCCOC[C@H](Cc1ccc(-c2ccc(C(F)(F)F)cc2)cc1)Nc1ccc(C(=O)NCCC(=O)O)cc1 [Compound 19-13, (S)-3-(4-((1-propoxy-3-(4′-(trifluoromethyl)-[1,1′-biphenyl]-4-yl)propan-2-yl)amino)benzamido)propanoic Acid]
23 | > 30 µM | >30 µM | – | – | – | CC[C@H](C)[C@@H](COc1nnc(-c2ccc(C(F)(F)F)cc2Cl)o1)Nc1ccc(C(=O)NCCC(=O)O)cc1 [Compound 22-19]
24 | 0.061 µM | 1.9 µM | – | – | – | O=C(O)CCNC(=O)c1ccc(N[C@@H](Cc2ccc(F)cc2)C(=O)Nc2ccc(-c3cc4ccccc4o3)cc2)cc1 [Compound 23-10, (S)-3-(4-((1-((4-(benzofuran-2-yl)phenyl)amino)-3-(4-fluorophenyl)-1-oxopropan-2-yl)amino)benzamido)propanoic Acid]
25 | 0.239 µM | 1.51 µM | – | – | – | O=C(O)CCNC(=O)c1ccc(N[C@H](Cc2ccc(-c3ccc(Cl)cc3Cl)cc2)C(=O)Nc2ccc(C(F)(F)F)cc2)cc1 [Compound 24-18, (R)-3-(4-((3-(2′,4′-dichloro-[1,1′-biphenyl]-4-yl)-1-oxo-1-((4-(trifluoromethyl)phenyl)amino)propan-2-yl)amino)benzamido)propanoic Acid]
26 | > 30 µM | >30 µM | – | – | – | CC[C@H](C)[C@@H](COc1nnc(-c2ccc(C(F)(F)F)cc2)o1)Nc1ccc(C(=O)NCCC(=O)O)cc1 [Compound 22-10, 3-(4-(((2S,3S)-3-methyl-1-((5-(4-(trifluoromethyl)phenyl)-1,3,4-oxadiazol-2-yl)oxy)pentan-2-yl)amino)benzamido)propanoic Acid]

Source: US11384060B2, “Amide compounds and use thereof” (ALPHALA CO., LTD., priority 2017, dated 2022)
